Experimental data reported in the NIST ThermoML archive (doi:10.1021/je700029q).
Several values for one entry are separate records, joined by “and”; a condition that tells them apart may be missing. Equal values may be shown once. ± gives the expanded uncertainty stated by the source.

Columns and labels:
[1] = 101 kPa, Liquid
[2] = refractive index (Na D-line) (dimensionless); conditions: 298.15 K; 101.33 kPa; Liquid
[3] = refractive index (Na D-line) (dimensionless); xn = mol fraction of the nth substance listed; conditions: 298.15 K, 101 kPa, Liquid
[4] = xn = mol fraction of the nth substance listed; conditions: 101 kPa, Liquid

CCOS(=O)(=O)[O-].CCn1cc[n+](C)c1 [1-ethyl-3-methylimidazolium ethyl sulfate]
[1]
Conditions | mass density [kg/m3] | speed of sound | viscosity [mPa·s]
298.15 K | 1237.6 ± 9.2 | 1679 ± 8 m/s | 97.58 ± 5.1
313.15 K | 1227.5 ± 9 | 1641 ± 8 m/s and 1642 ± 8 m/s and 1643 ± 8 m/s | 50.01 ± 1.3
328.15 K | 1217.5 ± 8.9 | 1605 ± 8 m/s | 29.18 ± 0.92

Conditions | refractive index
[2] | 1.4794 ± 0.0013

CC(C)O [propan-2-ol]
[1]
Conditions | mass density [kg/m3] | speed of sound [m/s] | viscosity [mPa·s]
298.15 K | 780.7 ± 0.9 | 1138 ± 5 | 2.082 ± 0.049
313.15 K | 767.8 ± 1 | 1085 ± 5 | 1.354 ± 0.036
328.15 K | 753.9 ± 1 | 1031 ± 5 | 0.919 ± 0.03

Conditions | refractive index
[2] | 1.37495 ± 0.00086

CO [methanol]
[1]
Conditions | mass density [kg/m3] | speed of sound [m/s] | viscosity [mPa·s]
298.15 K | 786.4 ± 0.9 | 1103 ± 5 | 0.546 ± 0.024
313.15 K | 772.3 ± 1 | 1055 ± 5 | 0.446 ± 0.023
328.15 K | 757.8 ± 1 | 1006 ± 4 | 0.369 ± 0.022

Conditions | refractive index
[2] | 1.32687 ± 0.00086

CCCO [propan-1-ol]
[1]
Conditions | mass density [kg/m3] | speed of sound [m/s] | viscosity [mPa·s]
298.15 K | 799.6 ± 0.9 | 1207 ± 5 | 2.017 ± 0.047
313.15 K | 787.4 ± 0.9 | 1155 ± 5 | 1.43 ± 0.037
328.15 K | 774.8 ± 1 | 1105 ± 5 | 1.041 ± 0.031

Conditions | refractive index
[2] | 1.3831 ± 0.00086

CCOS(=O)(=O)[O-].CCn1cc[n+](C)c1 [1-ethyl-3-methylimidazolium ethyl sulfate] + CCCO
[3]
Conditions | refractive index
x2 = 0 | 1.4794 ± 0.0013
x2 = 0.1619 | 1.47317 ± 0.0012
x2 = 0.2104 | 1.47102 ± 0.0012
x2 = 0.336 | 1.46449 ± 0.0011
x2 = 0.5159 | 1.4524 ± 0.001
x2 = 0.7298 | 1.43139 ± 0.00091
x2 = 0.8046 | 1.42139 ± 0.00089
x2 = 0.8894 | 1.40743 ± 0.00087
x2 = 0.9401 | 1.39739 ± 0.00087
x2 = 0.9727 | 1.39003 ± 0.00086

[4]
Conditions | mass density, 298.15 K [kg/m3] | mass density, 313.15 K [kg/m3] | mass density, 328.15 K [kg/m3] | speed of sound, 298.15 K [m/s] | speed of sound, 313.15 K [m/s] | speed of sound, 328.15 K [m/s] | viscosity, 298.15 K [mPa·s] | viscosity, 313.15 K [mPa·s] | viscosity, 328.15 K [mPa·s]
x2 = 0 | 1237.6 ± 9.2 | 1227.5 ± 9 | 1217.5 ± 8.9 | 1679 ± 8 | 1642 ± 8 | 1605 ± 8 | 97.58 ± 5.1 | 50.01 ± 1.3 | 29.18 ± 0.92
x2 = 0.1619 | 1208.1 ± 6.3 | 1197.9 ± 6.2 | 1187.6 ± 6.1 | 1637 ± 8 | 1600 ± 8 | 1565 ± 7 | 60.85 ± 1.6 | 33.73 ± 0.94 | 20.84 ± 0.59
x2 = 0.2104 | 1197.9 ± 5.6 | 1187.6 ± 5.5 | 1177.3 ± 5.4 | 1620 ± 7 | 1584 ± 7 | 1548 ± 7 | 52.11 ± 1.1 | 29.56 ± 0.8 | 18.59 ± 0.51
x2 = 0.336 | 1167.4 ± 4 | 1157.1 ± 3.9 | 1146.7 ± 3.8 | 1574 ± 7 | 1537 ± 7 | 1501 ± 7 | 34.41 ± 0.84 | 20.72 ± 0.51 | 13.61 ± 0.34
x2 = 0.5159 | 1111.6 ± 2.1 | 1100.8 ± 2.1 | 1090.2 ± 2 | 1492 ± 6 | 1456 ± 6 | 1419 ± 6 | 18.01 ± 0.4 | 11.73 ± 0.27 | 8.159 ± 0.19
x2 = 0.7298 | 1015.5 ± 0.7 | 1004.4 ± 0.7 | 993.2 ± 0.7 | 1382 ± 6 | 1340 ± 6 | 1300 ± 5 | 7.296 ± 0.16 | 5.125 ± 0.12 | 3.774 ± 0.089
x2 = 0.8046 | 970 ± 0.6 | 958.6 ± 0.6 | 947.2 ± 0.6 | 1337 ± 6 | 1294 ± 5 | 1252 ± 5 | 5.491 ± 0.12 | 3.918 ± 0.09 | 2.918 ± 0.068
x2 = 0.8894 | 907.7 ± 0.6 | 895.9 ± 0.6 | 884 ± 0.7 | 1284 ± 5 | 1238 ± 5 | 1193 ± 5 | 3.577 ± 0.081 | 2.58 ± 0.06 | 1.923 ± 0.046
x2 = 0.9401 | 862.5 ± 0.7 | 850.6 ± 0.7 | 838.5 ± 0.8 | 1249 ± 5 | 1201 ± 5 | 1154 ± 5 | 2.776 ± 0.064 | 1.997 ± 0.047 | 1.482 ± 0.038
x2 = 0.9727 | 829.8 ± 0.8 | 817.8 ± 0.8 | 805.5 ± 0.9 | 1227 ± 5 | 1178 ± 5 | 1130 ± 5 | 2.419 ± 0.056 | 1.729 ± 0.043 | 1.272 ± 0.035
